These results are taken from patent publication US8648066B2 (Exelixis, Inc., priority 2009, dated 2014).

This assay deals with mTOR/GbL/Raptor (mTORC1) (Homo sapiens, UniProt P42345). The assay is described as follows: mTOR/GbL/Raptor (mTORC1) ELISA assay. Type of assay: biochemical. To be noted: phosphorylation of 4E-BP1; 0.2 nM mTORC1, 10 μM ATP; read-out: IC50 in this assay (mTORC1 ELISA). In short, it runs like this: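 ELISA read-out: phospho-4E-BP1 captured on Ni-chelate plates and detected with anti-phospho antibody plus HRP-anti-IgG luminescence. The kinase step ran 120 min at ambient temperature with 0.2 nM human mTORC1, 10 µM ATP, 50 nM His-4E-BP1, 10 mM MnCl2, pH 7.2 HEPES.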
`CC(C)(N)CNS(=O)(=O)c1cc(-c2ccc3c(c2)CN(c2ncnc4c2CC(C)(C)CC4)CCO3)cnc1N` [Example 406, 2-amino-N-(2-amino-2-methylpropyl)-5-[4-(6,6-dimethyl-5,6,7,8-tetrahydroquinazolin-4-yl)-2,3,4,5-tetrahydro-1,4-benzoxazepin-7-yl]pyridine-3-sulfonamide]: the half-inhibitory concentration (IC50) is at most 10 nM.

As for `CC[C@H]1CCc2c(ncnc2N2CCOc3ccc(-c4cnc(N)c(S(=O)(=O)NCC(C)(C)N)c4)cc3C2)C1` [Example 407, 2-amino-N-(2-amino-2-methylpropyl)-5-{4-[(7S)-7-ethyl-5,6,7,8-tetrahydroquinazolin-4-yl]-2,3,4,5-tetrahydro-1,4-benzoxazepin-7-yl]pyridine-3-sulfonamide], the half-inhibitory concentration (IC50) was 10 to 50 nM.

In the case of `CCC(N)CNS(=O)(=O)c1cc(-c2ccc3c(c2)CN(c2ncnc4c2CC(C)(C)CC4)CCO3)cnc1N` (stereo not shown) [Example 408, 2-amino-N-(2-aminobutyl)-5-[4-(6,6-dimethyl-5,6,7,8-tetrahydroquinazolin-4-yl)-2,3,4,5-tetrahydro-1,4-benzoxazepin-7-yl]pyridine-3-sulfonamide], the IC50 lay within 10 to 50 nM.

For `CC1(C)CCc2ncnc(N3CCOc4ccc(-c5cnc(N)c(S(=O)(=O)NCCN)c5)cc4C3)c2C1` [Example 409, 2-amino-N-(2-aminoethyl)-5-[4-(6,6-dimethyl-5,6,7,8-tetrahydroquinazolin-4-yl)-2,3,4,5-tetrahydro-1,4-benzoxazepin-7-yl]pyridine-3-sulfonamide], the IC50 was at most 10 nM.

`CC(N)CNS(=O)(=O)c1cc(-c2ccc3c(c2)CN(c2ncnc4c2CC(C)(C)CC4)CCO3)cnc1N` (stereo not shown) [Example 410, 2-amino-N-(2-aminopropyl)-5-[4-(6,6-dimethyl-5,6,7,8-tetrahydroquinazolin-4-yl)-2,3,4,5-tetrahydro-1,4-benzoxazepin-7-yl]pyridine-3-sulfonamide]: the IC50 is 50 to 250 nM.

Regarding `CC(C)(CN)CNS(=O)(=O)c1cc(-c2ccc3c(c2)CN(c2ncnc4c2CC(C)(C)CC4)CCO3)cnc1N` [Example 411, 2-amino-N-(3-amino-2,2-dimethylpropyl)-5-[4-(6,6-dimethyl-5,6,7,8-tetrahydroquinazol-4-yl)-2,3,4,5-tetrahydro-1,4-benzoxazepin-7-yl]pyridine-3-sulfonamide], the IC50 was 10 to 50 nM.

Turning to `CC1(C)CCc2ncnc(N3CCOc4ccc(-c5cnc(N)c(S(=O)(=O)NCC(O)CN)c5)cc4C3)c2C1` (stereo not shown) [Example 412, 2-amino-N-(3-amino-2-hydroxypropyl)-5-[4-(6,6-dimethyl-5,6,7,8-tetrahydroquinazolin-4-yl)-2,3,4,5-tetrahydro-1,4-benzoxazepin-7-yl]pyridine-3-sulfonamide], the IC50 lay within 10 to 50 nM.

Consider `CC(C)(N)CCNS(=O)(=O)c1cc(-c2ccc3c(c2)CN(c2ncnc4c2CC(C)(C)CC4)CCO3)cnc1N` [Example 413, 2-amino-N-(3-amino-3-methylbutyl)-5-[4-(6,6-dimethyl-5,6,7,8-tetrahydroquinazolin-4-yl)-2,3,4,5-tetrahydro-1,4-benzoxazepin-7-yl]pyridine-3-sulfonamide], for which the IC50 lay within 50 to 250 nM.

Consider `CC1(C)CCc2ncnc(N3CCOc4ccc(-c5cnc(N)c(S(=O)(=O)NCCCN)c5)cc4C3)c2C1` [Example 414, 2-amino-N-(3-aminopropyl)-5-[4-(6,6-dimethyl-5,6,7,8-tetrahydroquinazolin-4-yl)-2,3,4,5-tetrahydro-1,4-benzoxazepin-7-yl]pyridine-3-sulfonamide], for which the half-inhibitory concentration (IC50) lay in the range of 10 to 50 nM.

Regarding `CC1(C)CCc2ncnc(N3CCOc4ccc(-c5cnc(N)c(S(=O)(=O)NCC6CNC6)c5)cc4C3)c2C1` [Example 415, 2-amino-N-(azetidin-3-ylmethyl)-5-[4-(6,6-dimethyl-5,6,7,8-tetrahydroquinazolin-4-yl)-2,3,4,5-tetrahydreo-1,4-benzoxazepin-7-yl]pyridine-3-sulfonamide], the half-maximal inhibitory concentration (IC50) fell in the range of 10 to 50 nM.

For the molecule `CC1(C)CCc2ncnc(N3CCOc4ccc(-c5cnc(N)c(S(=O)(=O)N[C@H]6CC[C@H](N)CC6)c5)cc4C3)c2C1` [Example 416, 2-amino-N-(trans-4-aminocyclohexyl)-5-[4-(6,6-dimethyl-5,6,7,8-tetrahydroquinazolin-4-yl)-2,3,4,5-tetrahydro-1,4-benzoxazepin-7-yl]pyridine-3-sulfonamide], the IC50 was 50 to 250 nM.

Turning to `Cc1nc2c(c(N3CCOc4ccc(-c5cnc(N)c(S(=O)(=O)N(C)C)c5)cc4C3)n1)CC(C)(C)CC2` [Example 417, 2-amino-N,N-dimethyl-5-[4-(2,6,6-trimethyl-5,6,7,8-tetrahydroquinazolin-4-yl)-2,3,4,5-tetrahydro-1,4-benzoxazepin-7-yl]pyridine-3-sulfonamide], the 50% inhibitory concentration (IC50) lay within 50 to 250 nM.

With `CC1(C)CCc2ncnc(N3CCOc4ccc(-c5cnc(N)c(S(=O)(=O)NCC6(N)CC6)c5)cc4C3)c2C1` [Example 418, 2-amino-N-[(1-aminocyclopropyl)methyl]-5-[4-(6,6-dimethyl-5,6,7,8-tetrahydroquinazolin-4-yl)-2,3,4,5-tetrahydro-1,4-benzoxazepin-7-yl]pyridine-3-sulfonamide], the IC50 was in the range of 10 to 50 nM.

Consider `Cc1nc2c(c(N3CCOc4ccc(-c5cnc(N)c(S(=O)(=O)NCC6CCN(C)CC6)c5)cc4C3)n1)CC(C)(C)CC2` [Example 419, 2-amino-N-[(1-methylpiperidin-4-yl)methyl]-5-[4-(2,6,6-trimethyl-5,6,7,8-tetrahydroquinazolin-4-yl)-2,3,4,5-tetrahydro-1,4-benzoxazepin-7-yl]pyridine-3-sulfonamide], for which the IC50 was 250 to 1000 nM.

`CC1=Cc2ncnc(N3CCOc4ccc(-c5cnc(N)c(S(=O)(=O)NCC6CCN(C)CC6)c5)cc4C3)c2CC1(C)C` [Example 420, 2-amino-N-[(1-methylpiperidin-4-yl)methyl]-5-[4-(6,6,7-trimethyl-5,6-dihydroquinazolin-4-yl)-2,3,4,5-tetrahydro-1,4-benzoaxepin-7-yl]pyridine-3-sulfonamide]: the IC50 is 250 to 1000 nM.

With `Cc1nc2c(c(N3CCOc4ccc(-c5cnc(N)c(S(=O)(=O)N[C@@H]6CCN(C)C6)c5)cc4C3)n1)CC(C)(C)CC2` [Example 421, 2-amino-N-[(3R)-1-methylpyrrolidin-3-yl]-5-[4-(2,6,6-trimethyl-5,6,7,8-tetrahydroquinazolin-4-yl)-2,3,4,5-tetrahydro-1,4-benzoxazepin-7-yl]pyridine-3-sulfonamide], the IC50 fell in the range of 250 to 1000 nM.

As for `CC1=CC(C)(C)Cc2c1ncnc2N1CCOc2ccc(-c3cnc(N)c(S(=O)(=O)N[C@@H]4CCN(C)C4)c3)cc2C1` [Example 422, 2-amino-N-[(3R)-1-methylpyrrolidin-3-yl]-5-[4-(6,6,8-trimethyl-5,6-dihydroquinazolin-4-yl)-2,3,4,5-tetrahydro-1,4-benzoxazepin-7-yl]pyridine-3-sulfonamide], the IC50 is 50 to 250 nM.

Consider `CN(C)CCNS(=O)(=O)c1cc(-c2ccc3c(c2)CN(c2ncnc4c2CC(C)(C)CC4)CCO3)cnc1N` [Example 423, 2-amino-N-[2-(dimethylamino)ethyl]-5-[4-(6,6-dimethyl-5,6,7,8-tetrahydroquinazolin-4-yl)-2,3,4,5-tetrahydro-1,4-benzoxazepin-7-yl]pyridine-3-sulfonamide], for which the IC50 is 50 to 250 nM.

As for `CC1=Cc2ncnc(N3CCOc4ccc(-c5cnc(N)c(S(=O)(=O)NC[C@H]6CCN(C)C6)c5)cc4C3)c2CC1(C)C` [Example 424, 2-amino-N-{[(3S)-1-methylpyrrolidin-3-yl]methyl}-5-[4-(6,6,7-trimethyl-5,6-dihydroquinazolin-4-yl)-2,3,4,5-tetrahydro-1,4-benzoxazepin-7-yl]pyridine-3-sulfonamide], the half-maximal inhibitory concentration (IC50) lay within 50 to 250 nM.

Turning to `CC1(C)CCc2ncnc(N3CCOc4ccc(-c5cnc(N)c(S(=O)(=O)NC6CC7CCC(C6)N7)c5)cc4C3)c2C1` (stereo not shown) [Example 425, 2-amino-N-8-azabicyclo[3.2.1]oct-3-yl-5-[4-(6,6-dimethyl-5,6,7,8-tetrahydroquinazolin-4-yl)-2,3,4,5-tetrahydro-1,4-benzoxazepin-7-yl]pyridine-3-sulfonamide], the 50% inhibitory concentration (IC50) lay in the range of 10 to 50 nM.

For the molecule `CC1(C)CCc2ncnc(N3CCOc4ccc(-c5cnc(N)c(S(=O)(=O)NC6CNC6)c5)cc4C3)c2C1` [Example 426, 2-amino-N-azetidin-3-yl-5-[4-(6,6-dimethyl-5,6,7,8-tetrahydroquinazolin-4-yl)-2,3,4,5-tetrahydro-1,4-benzoxazepin-7-yl]pyridine-3-sulfonamide], the 50% inhibitory concentration (IC50) was in the range of 10 to 50 nM.

With `CC1(C)CCc2ncnc(N3CCOc4ccc(-c5cnc(N)c(S(=O)(=O)NC6CCC6)c5)cc4C3)c2C1` [Example 427, 2-amino-N-cyclobutyl-5-[4-(6,6-dimethyl-5,6,7,8-tetrahydroquinazolin-4-yl)-2,3,4,5-tetrahydro-1,4-benzoxazepin-7-yl]pyridine-3-sulfonamide], the IC50 lay within 50 to 250 nM.

On to `CN(C)Cc1nc2c(c(N3CCOc4ccc(-c5ccc(Cl)c(C(N)=O)c5)cc4C3)n1)CC(C)(C)CC2` [Example 428, 2-chloro-5-(4-{2-[(dimethylamino)methyl]-6,6-dimethyl-5,6,7,8-tetrahydroquinazolin-4-yl}-2,3,4,5-tetrahydro-1,4-benzoxazepin-7-yl)benzamide], for which the half-maximal inhibitory concentration (IC50) is at least 2000 nM.

On to `Cc1cccc(Cl)c1S(=O)(=O)Nc1cc(-c2ccc3c(c2)CN(c2ncnc4c2CC(C)(C)CC4)CCO3)cnc1Cl` [Example 429, 2-chloro-N-{2-chloro-5-[4-(6,6-dimethyl-5,6,7,8-tetrahydroquinazolin-4-yl)-2,3,4,5-tetrahydro-1,4-benzoxazepin-7-yl]pyridin-3-yl}-6-methylbenzenesulfonamide], for which the half-maximal inhibitory concentration (IC50) was in the range of 250 to 1000 nM.

For `CC1(C)CCc2ncnc(N3CCOc4ccc(-c5cnc(N)c(S(=O)(=O)CCCO)c5)cc4C3)c2C1` [Example 430, 3-({2-amino-5-[4-(6,6-dimethyl-5,6,7,8-tetrahydroquinazolin-4-yl)-2,3,4,5-tetrahydro-1,4-benzoazepin-7-yl]pyridin-3-yl}sulfonyl)propan-1-ol], the IC50 was in the range of 10 to 50 nM.

For orientation: IC50 means the concentration that inhibits the measured activity by half.
